The values below come from patent US9580423B2, “Bicyclic heterocycles as FGFR4 inhibitors” (Incyte Corporation, priority 2015, dated 2017).

Where two headings read alike, the source gives them in different places.

The IC50 is the point on the concentration scale where inhibition reaches its midpoint.

One experiment addresses FGFR4 (Homo sapiens (Human), UniProt P22455). In words: FGFR Enzymatic Assay (FRET peptide phosphorylation), FGFR4. The note with it: for IC50: read-out: FGFR4 IC50; for FGFR1/FGFR4 IC50 ratio / FGFR2/FGFR4 IC50 ratio / FGFR3/FGFR4 IC50 ratio: IC50 ratio showing FGFR4 selectivity.
A further experiment concerns the target FGFR3 (Homo sapiens (Human), UniProt P22607). In words: FGFR Enzymatic Assay (FRET peptide phosphorylation), FGFR3.
The target of a further experiment is FGFR1 (Homo sapiens (Human), UniProt P11362). In words: FGFR Enzymatic Assay (FRET peptide phosphorylation), FGFR1. The note with it: read-out: FGFR1 IC50.
The target of a further experiment is FGFR2 (Homo sapiens (Human), UniProt P21802). In words: FGFR Enzymatic Assay (FRET peptide phosphorylation), FGFR2.
Setting [1] is: pre-incubated for 5 to 10 minutes.
Setting [2] is: FGFR3 IC50 (nM), pre-incubated for 5 to 10 minutes.
[3] abbreviates: FGFR3 IC50 (nM), pre-incubated for 4 hours.
Setting [4] is: read-out: FGFR2 IC50, pre-incubated for 5 to 10 minutes.
Setting [5] is: read-out: FGFR2 IC50, pre-incubated for 4 hours.
The mark [6] stands for this setting: read-out: FGFR3 IC50, pre-incubated for 5 to 10 minutes.
The mark [7] stands for this setting: read-out: FGFR3 IC50, pre-incubated for 4 hours.

Sequence of FGFR3 (P22607 23-806): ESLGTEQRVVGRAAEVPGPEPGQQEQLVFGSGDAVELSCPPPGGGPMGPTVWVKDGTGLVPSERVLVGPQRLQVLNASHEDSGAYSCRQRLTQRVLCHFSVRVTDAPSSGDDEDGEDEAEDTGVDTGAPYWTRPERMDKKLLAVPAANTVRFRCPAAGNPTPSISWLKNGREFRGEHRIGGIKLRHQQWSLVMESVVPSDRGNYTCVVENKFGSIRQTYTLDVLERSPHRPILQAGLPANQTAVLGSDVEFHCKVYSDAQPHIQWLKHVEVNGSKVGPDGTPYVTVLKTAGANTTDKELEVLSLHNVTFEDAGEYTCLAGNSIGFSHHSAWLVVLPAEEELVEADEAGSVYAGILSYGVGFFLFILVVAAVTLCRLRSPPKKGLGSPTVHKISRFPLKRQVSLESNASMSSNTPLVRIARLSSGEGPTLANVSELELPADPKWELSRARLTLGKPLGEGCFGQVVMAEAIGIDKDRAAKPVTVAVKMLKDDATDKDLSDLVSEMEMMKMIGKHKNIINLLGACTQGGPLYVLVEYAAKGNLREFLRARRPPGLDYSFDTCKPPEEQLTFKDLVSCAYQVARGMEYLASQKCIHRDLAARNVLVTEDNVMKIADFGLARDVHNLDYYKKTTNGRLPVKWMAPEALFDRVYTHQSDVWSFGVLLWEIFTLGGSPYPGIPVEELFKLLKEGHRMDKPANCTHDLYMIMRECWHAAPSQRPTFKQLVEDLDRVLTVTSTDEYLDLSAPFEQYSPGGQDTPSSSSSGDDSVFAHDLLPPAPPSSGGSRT
Sequence of FGFR4 (P22455 22-802): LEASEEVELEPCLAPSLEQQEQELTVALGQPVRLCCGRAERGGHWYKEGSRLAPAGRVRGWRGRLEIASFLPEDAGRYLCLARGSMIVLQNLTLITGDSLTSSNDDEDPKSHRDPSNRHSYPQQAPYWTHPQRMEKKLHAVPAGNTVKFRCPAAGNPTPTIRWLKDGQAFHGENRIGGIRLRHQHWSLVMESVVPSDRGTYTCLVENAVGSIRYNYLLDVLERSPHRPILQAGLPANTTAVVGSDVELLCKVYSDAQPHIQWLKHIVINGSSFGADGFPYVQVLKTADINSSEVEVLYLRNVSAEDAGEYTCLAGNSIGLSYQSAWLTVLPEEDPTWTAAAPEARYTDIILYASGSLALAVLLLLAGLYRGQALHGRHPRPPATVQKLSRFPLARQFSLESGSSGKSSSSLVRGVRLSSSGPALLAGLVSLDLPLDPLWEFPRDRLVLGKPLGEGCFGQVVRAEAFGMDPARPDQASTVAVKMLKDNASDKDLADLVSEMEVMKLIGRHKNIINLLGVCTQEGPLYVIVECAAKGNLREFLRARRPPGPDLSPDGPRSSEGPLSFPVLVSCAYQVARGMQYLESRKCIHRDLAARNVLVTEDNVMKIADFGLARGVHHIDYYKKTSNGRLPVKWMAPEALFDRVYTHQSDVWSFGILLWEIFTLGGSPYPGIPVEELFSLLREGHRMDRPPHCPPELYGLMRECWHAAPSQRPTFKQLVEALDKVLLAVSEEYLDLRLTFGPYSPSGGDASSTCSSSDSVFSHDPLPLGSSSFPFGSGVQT
Sequence of FGFR1 (P11362 22-822): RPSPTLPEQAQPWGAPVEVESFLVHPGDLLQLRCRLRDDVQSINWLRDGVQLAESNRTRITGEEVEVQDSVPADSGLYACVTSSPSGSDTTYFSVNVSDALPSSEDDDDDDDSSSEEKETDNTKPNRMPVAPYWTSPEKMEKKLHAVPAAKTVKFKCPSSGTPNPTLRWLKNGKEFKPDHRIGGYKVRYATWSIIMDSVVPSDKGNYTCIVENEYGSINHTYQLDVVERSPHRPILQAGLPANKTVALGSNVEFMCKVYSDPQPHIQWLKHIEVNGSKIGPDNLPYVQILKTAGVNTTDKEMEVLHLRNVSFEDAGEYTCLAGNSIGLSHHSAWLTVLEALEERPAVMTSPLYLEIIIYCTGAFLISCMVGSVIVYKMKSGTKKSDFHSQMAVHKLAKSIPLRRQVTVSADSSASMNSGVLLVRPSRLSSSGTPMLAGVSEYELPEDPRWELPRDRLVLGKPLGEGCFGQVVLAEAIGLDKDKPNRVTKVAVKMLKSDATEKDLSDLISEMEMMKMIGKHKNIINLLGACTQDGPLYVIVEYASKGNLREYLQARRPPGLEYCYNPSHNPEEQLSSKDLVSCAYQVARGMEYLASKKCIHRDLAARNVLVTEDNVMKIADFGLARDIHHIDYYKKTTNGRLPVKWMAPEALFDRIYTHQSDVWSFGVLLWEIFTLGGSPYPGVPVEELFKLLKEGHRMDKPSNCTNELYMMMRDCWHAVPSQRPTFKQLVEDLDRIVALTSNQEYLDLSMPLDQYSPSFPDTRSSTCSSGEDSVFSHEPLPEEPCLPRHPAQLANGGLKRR
Sequence of FGFR2 (P21802 22-821): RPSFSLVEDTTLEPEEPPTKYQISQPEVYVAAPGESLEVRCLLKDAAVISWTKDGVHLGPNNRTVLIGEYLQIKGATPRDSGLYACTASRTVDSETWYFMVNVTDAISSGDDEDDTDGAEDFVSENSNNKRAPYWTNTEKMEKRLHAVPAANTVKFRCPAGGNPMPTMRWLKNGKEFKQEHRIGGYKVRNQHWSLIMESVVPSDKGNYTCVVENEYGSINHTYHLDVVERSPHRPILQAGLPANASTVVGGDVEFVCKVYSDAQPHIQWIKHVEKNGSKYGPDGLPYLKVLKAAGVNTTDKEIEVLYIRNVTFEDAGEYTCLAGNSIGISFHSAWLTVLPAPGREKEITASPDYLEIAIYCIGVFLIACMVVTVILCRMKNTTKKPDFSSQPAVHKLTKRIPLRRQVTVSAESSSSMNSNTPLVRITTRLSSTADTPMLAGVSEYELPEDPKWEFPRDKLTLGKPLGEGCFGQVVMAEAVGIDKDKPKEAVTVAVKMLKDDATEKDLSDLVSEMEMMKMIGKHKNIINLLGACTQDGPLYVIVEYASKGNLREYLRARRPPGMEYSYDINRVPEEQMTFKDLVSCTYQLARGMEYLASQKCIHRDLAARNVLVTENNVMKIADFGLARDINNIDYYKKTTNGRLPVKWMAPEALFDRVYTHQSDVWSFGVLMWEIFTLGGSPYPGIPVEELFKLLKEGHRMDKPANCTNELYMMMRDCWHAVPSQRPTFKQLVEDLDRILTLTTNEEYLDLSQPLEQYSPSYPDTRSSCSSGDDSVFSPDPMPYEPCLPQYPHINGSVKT
Description for FGFR1: (§1) The enzymes were purchased from Millipore or Invitrogen.
(§2) GraphPad prism3 was used to analyze the data. The IC50 values were derived by fitting the data to the equation for a sigmoidal dose-response with a variable slope. Y=Bottom+(Top-Bottom)/(1+10^((LogIC50−X)*HillSlope)) where X is the logarithm of concentration and Y is the response.
Description for FGFR2: as §1, §2
Description for FGFR3: as §1, §2
Description for FGFR4: as §1, §2

`C=CC(=O)Nc1cccc(-c2cc3c(cn2)CN(c2c(F)c(OC)cc(OC)c2F)C(=O)C32CC2)c1` [Example 1, N-{3-[2′-(2,6-difluoro-3,5-dimethoxyphenyl)-3′-oxo-2′,3′-dihydro-1′H-spiro[cyclopropane-1,4′-[2,7]naphthyridin]-6′-yl]phenyl}acrylamide]: the IC50 on FGFR4 (setting [1]) was less than 10 nM; at FGFR4 (pre-incubated for 4 hours), less than 10 nM; at FGFR3 (setting [2]) it was 10 to 30 nM; against FGFR3 (setting [3]), 10 to 30 nM.

On to `C=CC(=O)Nc1ccc(C)c(-c2cc3c(cn2)CN(c2c(F)c(OC)cc(OC)c2F)C(=O)C32CC2)c1` [Example 2, N-(3-(2′-(2,6-difluoro-3,5-dimethoxyphenyl)-3′-oxo-2′,3′-dihydro-1′H-spiro[cyclopropane-1,4′-[2,7]naphthyridine]-6′-yl)-4-methylphenyl)acrylamide], for which the IC50 is greater than 200 nM at FGFR1 (setting [1]); greater than 200 nM on FGFR1 (pre-incubated for 4 hours); greater than 200 nM at FGFR2 (setting [4]); greater than 200 nM at FGFR2 (setting [5]); less than 10 nM at FGFR4 (setting [1]); less than 10 nM on FGFR4 (pre-incubated for 4 hours). Also, the IC50 at FGFR3 (setting [6]) and at FGFR3 (setting [7]) was greater than 200 nM throughout. The “FGFR1/FGFR4 IC50 ratio” value on FGFR4 (setting [1]) and at FGFR4 (pre-incubated for 4 hours) was greater than 100 each time. In addition, the “FGFR2/FGFR4 IC50 ratio” value at FGFR4 (setting [1]) and at FGFR4 (pre-incubated for 4 hours) was greater than 100 throughout. Moreover, the “FGFR3/FGFR4 IC50 ratio” value on FGFR4 (setting [1]) and on FGFR4 (pre-incubated for 4 hours) was greater than 100 throughout.

With `C=CC(=O)Nc1cncc(-c2cc3c(cn2)CN(c2c(F)c(OC)cc(OC)c2F)C(=O)C32CC2)c1` [Example 3, N-(5-(2′-(2,6-difluoro-3,5-dimethoxyphenyl)-3′-oxo-2′,3′-dihydro-1′H-spiro[cyclopropane-1,4′-[2,7]naphthyridine]-6′-yl)pyridin-3-yl)acrylamide], the IC50 is 30 to 200 nM against FGFR2; 30 to 200 nM at FGFR2 (setting [4]); less than 10 nM on FGFR4 (setting [1]); less than 10 nM at FGFR4 (pre-incubated for 4 hours); 30 to 200 nM against FGFR3 (setting [2]); 30 to 200 nM against FGFR3 (setting [3]).

On to `C=CC(=O)Nc1cc(-c2cc3c(cn2)CN(c2c(F)c(OC)cc(OC)c2F)C(=O)C32CC2)ccn1` [Example 4, N-(4-(2′-(2,6-difluoro-3,5-dimethoxyphenyl)-3′-oxo-2′,3′-dihydro-1′H-spiro[cyclopropane-1,4′-[2,7]naphthyridine]-6′-yl)pyridin-2-yl)acrylamide], for which the IC50 against FGFR3 (setting [2]) and on FGFR3 (setting [3]) was 10 to 30 nM each time.

As to `C=CC(=O)Nc1ccc(C#N)c(-c2cc3c(cn2)CN(c2c(F)c(OC)cc(OC)c2F)C(=O)C32CC2)c1` [Example 5, N-(4-cyano-3-(2′-(2,6-difluoro-3,5-dimethoxyphenyl)-3′-oxo-2′,3′-dihydro-1′H-spiro[cyclopropane-1,4′-[2,7]naphthyridine]-6′-yl)phenyl)acrylamide], the IC50 at FGFR1 (setting [1]) was greater than 200 nM; at FGFR1 (pre-incubated for 4 hours), greater than 200 nM; at FGFR2 (setting [4]), greater than 200 nM; at FGFR2 (setting [5]) it was greater than 200 nM; at FGFR4 (setting [1]), less than 10 nM; at FGFR4 (pre-incubated for 4 hours), less than 10 nM. Further, the IC50 on FGFR3 (setting [6]) and at FGFR3 (setting [7]) was greater than 200 nM throughout. Further, the “FGFR1/FGFR4 IC50 ratio” value on FGFR4 (setting [1]) and on FGFR4 (pre-incubated for 4 hours) was greater than 100 each time. The “FGFR2/FGFR4 IC50 ratio” value at FGFR4 (setting [1]) and on FGFR4 (pre-incubated for 4 hours) was greater than 100 throughout. For the same compound, the “FGFR3/FGFR4 IC50 ratio” value at FGFR4 (setting [1]) and on FGFR4 (pre-incubated for 4 hours) was greater than 100 in each case.

With `C=CC(=O)Nc1cc(-c2cc3c(cn2)CN(c2c(F)c(OC)cc(OC)c2F)C(=O)C32CC2)c(C)cc1F` [Example 6, N-(5-(2′-(2,6-difluoro-3,5-dimethoxyphenyl)-3′-oxo-2′,3′-dihydro-1′H-spiro[cyclopropane-1,4′-[2,7]naphthyridine]-6′-yl)-2-fluoro-4-methylphenyl)acrylamide], the IC50 at FGFR1 (setting [1]) is greater than 200 nM; at FGFR1 (pre-incubated for 4 hours) it was greater than 200 nM; on FGFR2 (setting [4]), greater than 200 nM; at FGFR2 (setting [5]), greater than 200 nM; at FGFR4 (setting [1]), less than 10 nM; at FGFR4 (pre-incubated for 4 hours), less than 10 nM. The IC50 on FGFR3 (setting [6]) and at FGFR3 (setting [7]) was greater than 200 nM throughout. For the same compound, the “FGFR1/FGFR4 IC50 ratio” value on FGFR4 (setting [1]) and at FGFR4 (pre-incubated for 4 hours) was greater than 100 each time. For the same compound, the “FGFR2/FGFR4 IC50 ratio” value at FGFR4 (setting [1]) and at FGFR4 (pre-incubated for 4 hours) was greater than 100 throughout. For the same compound, the “FGFR3/FGFR4 IC50 ratio” value on FGFR4 (setting [1]) and on FGFR4 (pre-incubated for 4 hours) was greater than 100 each time.

On to `C=CC(=O)Nc1cnc(C)c(-c2cc3c(cn2)CN(c2c(F)c(OC)cc(OC)c2F)C(=O)C32CC2)c1` [Example 7, N-(5-(2′-(2,6-difluoro-3,5-dimethoxyphenyl)-3′-oxo-2′,3′-dihydro-1′H-spiro[cyclopropane-1,4′-[2,7]naphthyridine]-6′-yl)-6-methylpyridin-3-yl)acrylamide], for which the IC50 at FGFR1 (setting [1]) is greater than 200 nM; on FGFR1 (pre-incubated for 4 hours), greater than 200 nM; on FGFR2 (setting [4]), greater than 200 nM; at FGFR2 (setting [5]), greater than 200 nM; at FGFR4 (setting [1]) it was less than 10 nM; at FGFR4 (pre-incubated for 4 hours) it was less than 10 nM. The IC50 at FGFR3 (setting [6]) and on FGFR3 (setting [7]) was greater than 200 nM each time. Further, the “FGFR1/FGFR4 IC50 ratio” value at FGFR4 (setting [1]) and at FGFR4 (pre-incubated for 4 hours) was greater than 100 in each case. In addition, the “FGFR2/FGFR4 IC50 ratio” value on FGFR4 (setting [1]) and at FGFR4 (pre-incubated for 4 hours) was greater than 100 each time. The “FGFR3/FGFR4 IC50 ratio” value on FGFR4 (setting [1]) and on FGFR4 (pre-incubated for 4 hours) was greater than 100 each time.

Take `C=CC(=O)N(C)c1cccc(-c2cc3c(cn2)CN(c2c(F)c(OC)cc(OC)c2F)C(=O)C32CC2)c1` [Example 9, N-(3-(2′-(2,6-difluoro-3,5-dimethoxyphenyl)-3′-oxo-2′,3′-dihydro-1′H-spiro[cyclopropane-1,4′-[2,7]naphthyridine]-6′-yl)phenyl)-N-methylacrylamide]: the IC50 was 30 to 200 nM against FGFR2; 30 to 200 nM at FGFR2 (setting [4]); less than 10 nM at FGFR4 (setting [1]); less than 10 nM on FGFR4 (pre-incubated for 4 hours); 10 to 30 nM against FGFR3 (setting [2]); 10 to 30 nM against FGFR3 (setting [3]).

Regarding `C=CC(=O)Nc1cc(-c2cc3c(cn2)CN(c2c(F)c(OC)cc(OC)c2F)C(=O)C32CC2)ccc1CO` [Example 13, N-(5-(2′-(2,6-difluoro-3,5-dimethoxyphenyl)-3′-oxo-2′,3′-dihydro-1′H-spiro[cyclopropane-1,4′-[2,7]naphthyridine]-6′-yl)-2-(hydroxymethyl)phenyl)acrylamide], the IC50 at FGFR2 is 30 to 200 nM; at FGFR2 (setting [4]) it was 30 to 200 nM; at FGFR4 (setting [1]) it was less than 10 nM; on FGFR4 (pre-incubated for 4 hours), less than 10 nM; at FGFR3 (setting [2]) it was 30 to 200 nM; at FGFR3 (setting [3]), 30 to 200 nM.

Turning to `C=CC(=O)Nc1cnn(CC(=O)NC)c1-c1cc2c(cn1)CN(c1c(F)c(OC)cc(OC)c1F)C(=O)C21CC1` [Example 20, N-(5-(2′-(2,6-difluoro-3,5-dimethoxyphenyl)-3′-oxo-2′,3′-dihydro-1′H-spiro[cyclopropane-l,4′[2,7]naphthyridine]-6′-yl)-1-(2-(methylamino)-2-oxoethyl)-1H-pyrazol-4-yl)acrylamide], on FGFR4 (pre-incubated for 4 hours), the “FGFR1/FGFR4 IC50 ratio” value was greater than 50, the “FGFR2/FGFR4 IC50 ratio” value was greater than 100 and the “FGFR3/FGFR4 IC50 ratio” value is reported as greater than 100.
